Values of other authors, collected in patent US4987122A, “Peptide compounds and medical method of use thereof” (Nycomed AS, priority 1986, dated 1991).
[ ]: non-standard residue; d: D form. pGlu = O=C1CC[C@@H](C(=O)O)N1

Columns and labels:
granulopoiesis = conditions: as reported in the European patent application
[1] = subjected to freezing and thawing; reversed by treatment with mercaptoethanol

Substance | activity of the synthetic compound (granulopoiesis) | activity after freezing and thawing [1]
pyroGlu-Asp-Asp-Cys-LysOH ([pGlu]DDCK-OH; SMILES NCCCC[C@H](NC(=O)[C@H](CS)NC(=O)[C@H](CC(=O)O)NC(=O)[C@H](CC(=O)O)NC(=O)[C@@H]1CCC(=O)N1)C(=O)O) [synthetic compound with the structure postulated for the natural granulopoiesis factor] | inactive | –
pyroGlu-Glu-Asp-Cys-LysOH ([pGlu]EDCK-OH; SMILES NCCCC[C@H](NC(=O)[C@H](CS)NC(=O)[C@H](CC(=O)O)NC(=O)[C@H](CCC(=O)O)NC(=O)[C@@H]1CCC(=O)N1)C(=O)O) | – | stimulatory activity
